Test results from ChEMBL document CHEMBL1201862, “PubChem BioAssay data set” (2004).
Calls of active or inactive are those of the source.

Legend:
[1] = Trypanosoma cruzi growth suppression in host cells – NIH3T3 host cells, beta-gal luminescence, confirmation (AID 2044); format: functional, cell-based;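 also: intracellular parasites grown in NIH/3T3 mouse fibroblasts as host cells; luminescent beta-galactosidase reporter signal from transgenic T. cruzi replicating inside host cells; inhibitors lower the luminescence signal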
[2] = biological target: T1, Calpain-2 catalytic subunit (Sus scrofa, UniProt P43367); assay: m-calpain protease blockers, concentration series – biochemical, fluorogenic peptide substrate, dose response (AID 1420); format: functional
T1 sequence (P43367 whole entry): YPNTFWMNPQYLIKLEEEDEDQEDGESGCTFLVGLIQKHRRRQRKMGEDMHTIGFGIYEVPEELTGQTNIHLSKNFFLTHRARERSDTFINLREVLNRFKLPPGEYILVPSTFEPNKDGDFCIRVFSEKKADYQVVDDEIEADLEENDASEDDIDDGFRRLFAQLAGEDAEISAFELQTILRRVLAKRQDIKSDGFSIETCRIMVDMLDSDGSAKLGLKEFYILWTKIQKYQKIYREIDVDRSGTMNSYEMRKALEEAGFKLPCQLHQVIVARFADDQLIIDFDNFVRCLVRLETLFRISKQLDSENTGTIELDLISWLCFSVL

[3] = NIH3T3 cell viability loss – ATP luminescence, mouse fibroblasts, counter-screen, dose response (AID 2010); format: functional, cell-based;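 also: cells exposed to compound for about 90 hours before reading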
[4] = biological target: NACHT, LRR and PYD domains-containing protein 3 (Homo sapiens, UniProt Q96P20); assay: NALP3 inhibitors in yeast, dose response, luminescent (AID 488799); format: functional
[5] = biological target: Neurotensin receptor type 1 (Homo sapiens, UniProt P30989); format: functional;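 also: Image-based confirmatory dose-response assay measuring agonist activity at NTR1; NTR1-expressing U2OS osteosarcoma cells imaged for beta-arrestin GFP spot formation; agonist potency where compounds increase beta-arrestin recruitment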
Sequence of Neurotensin receptor type 1 (P30989 whole entry): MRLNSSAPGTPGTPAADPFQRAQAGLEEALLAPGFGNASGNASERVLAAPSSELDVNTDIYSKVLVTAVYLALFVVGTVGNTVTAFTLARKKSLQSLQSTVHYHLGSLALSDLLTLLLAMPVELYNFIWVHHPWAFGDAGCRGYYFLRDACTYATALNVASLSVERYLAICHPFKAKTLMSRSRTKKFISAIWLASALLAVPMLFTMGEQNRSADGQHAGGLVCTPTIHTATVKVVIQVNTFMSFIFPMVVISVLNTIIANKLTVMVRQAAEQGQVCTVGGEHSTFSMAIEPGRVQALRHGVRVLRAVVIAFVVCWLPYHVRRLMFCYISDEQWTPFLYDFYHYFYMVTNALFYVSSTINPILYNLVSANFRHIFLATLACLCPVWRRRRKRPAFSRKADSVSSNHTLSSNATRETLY

[6] = HEK-293T viability loss after treatment – luminescence, T-cell screen hits, cytotoxicity control for TCR NF-kB inhibitor project, dose response (AID 489026); format: functional, cell-based;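 also: cells exposed to compound about 14 hours before the viability readout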
[7] = biological target: Voltage-dependent T-type calcium channel subunit alpha-1H (Homo sapiens, UniProt O95180); assay: human CACNA1H calcium influx blockade – cell-based, synthetic library set 1, calcium flux (AID 493022); format: functional
Sequence of Voltage-dependent T-type calcium channel subunit alpha-1H (O95180 whole entry): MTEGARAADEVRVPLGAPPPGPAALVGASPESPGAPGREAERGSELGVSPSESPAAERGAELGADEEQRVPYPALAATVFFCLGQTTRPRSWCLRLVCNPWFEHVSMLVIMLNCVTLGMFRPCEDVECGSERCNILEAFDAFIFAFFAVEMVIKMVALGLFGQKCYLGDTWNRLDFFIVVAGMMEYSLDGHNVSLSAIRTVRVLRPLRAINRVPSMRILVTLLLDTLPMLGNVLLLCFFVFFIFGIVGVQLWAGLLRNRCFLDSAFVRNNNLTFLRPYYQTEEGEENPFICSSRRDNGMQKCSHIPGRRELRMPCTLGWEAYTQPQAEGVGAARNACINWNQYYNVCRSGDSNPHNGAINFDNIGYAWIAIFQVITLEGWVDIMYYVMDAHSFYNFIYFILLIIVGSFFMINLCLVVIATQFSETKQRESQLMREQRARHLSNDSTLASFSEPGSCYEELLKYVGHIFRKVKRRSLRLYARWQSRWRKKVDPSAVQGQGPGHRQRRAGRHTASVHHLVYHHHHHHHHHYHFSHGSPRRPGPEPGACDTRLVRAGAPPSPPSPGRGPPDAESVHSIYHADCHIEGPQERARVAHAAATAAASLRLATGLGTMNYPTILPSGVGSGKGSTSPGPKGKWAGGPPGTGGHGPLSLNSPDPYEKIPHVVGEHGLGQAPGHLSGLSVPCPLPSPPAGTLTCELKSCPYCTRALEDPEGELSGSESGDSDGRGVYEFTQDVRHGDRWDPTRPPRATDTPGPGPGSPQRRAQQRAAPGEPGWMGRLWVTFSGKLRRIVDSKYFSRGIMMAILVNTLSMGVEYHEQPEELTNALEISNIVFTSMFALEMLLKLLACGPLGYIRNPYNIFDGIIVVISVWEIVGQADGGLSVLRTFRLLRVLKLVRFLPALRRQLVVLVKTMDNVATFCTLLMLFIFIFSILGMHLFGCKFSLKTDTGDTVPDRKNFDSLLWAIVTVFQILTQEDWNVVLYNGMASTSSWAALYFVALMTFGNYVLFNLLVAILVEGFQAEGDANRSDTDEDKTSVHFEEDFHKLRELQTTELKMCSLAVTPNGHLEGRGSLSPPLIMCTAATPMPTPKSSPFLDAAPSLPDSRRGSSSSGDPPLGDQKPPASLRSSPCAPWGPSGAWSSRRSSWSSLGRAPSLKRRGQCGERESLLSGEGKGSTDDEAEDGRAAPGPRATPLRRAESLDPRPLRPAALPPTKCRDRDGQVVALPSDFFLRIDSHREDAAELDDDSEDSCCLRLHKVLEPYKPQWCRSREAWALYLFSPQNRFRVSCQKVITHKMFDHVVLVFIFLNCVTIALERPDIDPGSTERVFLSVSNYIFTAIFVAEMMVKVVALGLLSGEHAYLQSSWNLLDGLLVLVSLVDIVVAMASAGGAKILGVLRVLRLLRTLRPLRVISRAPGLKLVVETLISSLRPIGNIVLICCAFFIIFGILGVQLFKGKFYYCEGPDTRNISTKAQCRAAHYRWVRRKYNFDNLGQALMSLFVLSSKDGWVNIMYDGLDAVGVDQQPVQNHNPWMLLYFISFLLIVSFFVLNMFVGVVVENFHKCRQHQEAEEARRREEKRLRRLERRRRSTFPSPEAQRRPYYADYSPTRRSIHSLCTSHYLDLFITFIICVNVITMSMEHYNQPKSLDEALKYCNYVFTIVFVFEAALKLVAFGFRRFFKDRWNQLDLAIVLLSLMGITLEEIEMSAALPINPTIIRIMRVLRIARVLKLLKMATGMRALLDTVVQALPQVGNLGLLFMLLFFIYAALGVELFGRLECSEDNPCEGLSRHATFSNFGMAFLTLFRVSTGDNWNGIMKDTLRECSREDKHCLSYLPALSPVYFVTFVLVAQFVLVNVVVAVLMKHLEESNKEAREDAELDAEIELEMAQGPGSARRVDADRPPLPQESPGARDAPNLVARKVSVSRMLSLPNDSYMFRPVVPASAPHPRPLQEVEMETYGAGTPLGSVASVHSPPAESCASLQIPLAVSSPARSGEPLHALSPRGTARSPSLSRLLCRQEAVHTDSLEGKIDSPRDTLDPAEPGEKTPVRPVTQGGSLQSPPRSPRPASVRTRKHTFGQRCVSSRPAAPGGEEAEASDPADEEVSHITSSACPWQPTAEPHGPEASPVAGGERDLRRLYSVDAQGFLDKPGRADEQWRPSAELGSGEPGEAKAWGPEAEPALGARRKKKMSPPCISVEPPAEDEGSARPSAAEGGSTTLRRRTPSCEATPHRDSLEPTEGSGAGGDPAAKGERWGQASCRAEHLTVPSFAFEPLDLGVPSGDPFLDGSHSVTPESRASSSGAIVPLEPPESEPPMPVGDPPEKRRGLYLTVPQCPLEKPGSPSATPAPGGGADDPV

BJ [8] = assay: BJ-TERT fibroblast viability loss – cell-based, RAS-independent, luminescence, dose response (AID 1933); format: functional; details: Homo sapiens
[9] = biological target: T2, Heat shock factor protein 1 (Mus musculus, UniProt P38532); assay: decrease of HSF1-responsive luciferase luminescence – cell-based, NIH3T3, dose retest, confirmation (AID 2382); format: functional;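 also: NIH3T3 fibroblasts with HSF1-driven luciferase reporter stressed by proteasome inhibitor MG132; luminescence from HSF1-driven luciferase expression after 8 hours of MG132 stress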
T2 sequence (P38532 whole entry): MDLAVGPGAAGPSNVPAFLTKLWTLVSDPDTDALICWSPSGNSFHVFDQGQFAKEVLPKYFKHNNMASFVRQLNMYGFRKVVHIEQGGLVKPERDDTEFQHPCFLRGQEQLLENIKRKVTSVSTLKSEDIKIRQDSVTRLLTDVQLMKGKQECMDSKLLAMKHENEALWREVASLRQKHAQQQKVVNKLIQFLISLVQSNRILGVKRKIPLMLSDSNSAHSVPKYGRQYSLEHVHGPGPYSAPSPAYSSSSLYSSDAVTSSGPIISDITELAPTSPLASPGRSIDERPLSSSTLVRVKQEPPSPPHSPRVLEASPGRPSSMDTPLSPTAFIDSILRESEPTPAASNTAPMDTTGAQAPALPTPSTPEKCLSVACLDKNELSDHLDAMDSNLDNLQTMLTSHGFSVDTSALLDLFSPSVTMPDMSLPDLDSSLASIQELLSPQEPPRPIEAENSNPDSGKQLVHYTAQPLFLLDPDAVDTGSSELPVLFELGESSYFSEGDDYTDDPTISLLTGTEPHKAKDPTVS

BJ [10] = assay: cells; format: functional, cell-based; details: Homo sapiens
[11] = biological target: T3, Sphingosine 1-phosphate receptor 4 (Homo sapiens, UniProt O95977); assay: Fluorescence dose response cell-based high throughput screening assay for antagonists of the Sphingosine 1-Phosphate Receptor 4 (S1P4). [Related pubchem assays: 1524 (Confirmation in triplicates.), 1510 (Primary screen.)]; format: functional
T3 sequence (O95977 whole entry): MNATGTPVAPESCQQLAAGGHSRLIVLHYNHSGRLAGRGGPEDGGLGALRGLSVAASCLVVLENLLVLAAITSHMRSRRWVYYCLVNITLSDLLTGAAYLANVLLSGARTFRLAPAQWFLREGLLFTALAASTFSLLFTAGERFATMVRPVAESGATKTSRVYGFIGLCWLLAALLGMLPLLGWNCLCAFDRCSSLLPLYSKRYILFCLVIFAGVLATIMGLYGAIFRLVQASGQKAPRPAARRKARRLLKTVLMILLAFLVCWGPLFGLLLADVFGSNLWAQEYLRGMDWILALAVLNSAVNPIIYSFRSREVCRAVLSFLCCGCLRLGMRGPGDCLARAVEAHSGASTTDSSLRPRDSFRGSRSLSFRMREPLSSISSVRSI

BJ [12] = assay: BJ-TERT-LT-ST fibroblast viability loss – cell-based, RAS-independent, luminescence, dose response (AID 1935); format: functional; details: Homo sapiens;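 also: BJ fibroblasts immortalized with TERT plus LT and ST oncogenes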
[13] = DRD fibroblast viability loss – cell-based, non-viral oncogenic, luminescence, dose response (AID 1934); format: functional; details: Homo sapiens
[14] = biological target: Sphingosine 1-phosphate receptor 1 (Homo sapiens, UniProt P21453); format: functional;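 also: Tango beta-arrestin reporter U2OS cells stimulated with S1P near its EC80; inhibitor potency meaning antagonism of receptor activation by the natural agonist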
Sequence of Sphingosine 1-phosphate receptor 1 (P21453 whole entry): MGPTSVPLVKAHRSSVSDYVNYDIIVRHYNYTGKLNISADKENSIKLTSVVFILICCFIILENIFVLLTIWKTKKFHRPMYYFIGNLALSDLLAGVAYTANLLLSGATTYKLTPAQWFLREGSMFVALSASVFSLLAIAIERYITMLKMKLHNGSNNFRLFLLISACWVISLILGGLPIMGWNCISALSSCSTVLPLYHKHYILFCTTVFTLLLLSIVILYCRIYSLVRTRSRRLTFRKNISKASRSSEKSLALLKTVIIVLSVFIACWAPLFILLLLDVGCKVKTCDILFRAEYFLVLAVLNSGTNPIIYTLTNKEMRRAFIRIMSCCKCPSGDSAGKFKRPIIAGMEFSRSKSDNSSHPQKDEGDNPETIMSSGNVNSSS

Integrin alpha-4 = Integrin alpha-4 (Homo sapiens, UniProt P13612); assay: allosteric modulators of alpha4 integrin VLA-4 – cell-based, LIBS antibody binding, flow cytometry, SAR follow-up (AID 488791); format: functional
CHO = CHO cell viability loss, potency – luminescence, cytotoxicity control for TLR9-MyD88 binding inhibitor project, dose response (AID 588339); format: functional, cell-based, hamster; details: Cricetulus griseus;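 also: CHO cells stably coexpressing TLR9 and MyD88 fusions from primary screen; compound exposure lasted 48 hours before viability readout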
Beta Lactamase = Beta Lactamase (Pseudomonas aeruginosa, UniProt Q932Y6); assay: BLA reporter interference, concentration series – BLA reporter cells, FRET fluorescence, artefact control for TLR9-MyD88 binding inhibitor project, dose response (AID 588341); format: cell-based;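 also: cell based assay in CHO-K1 cells stably expressing beta-lactamase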
Sequence of Beta Lactamase (Q932Y6 whole entry): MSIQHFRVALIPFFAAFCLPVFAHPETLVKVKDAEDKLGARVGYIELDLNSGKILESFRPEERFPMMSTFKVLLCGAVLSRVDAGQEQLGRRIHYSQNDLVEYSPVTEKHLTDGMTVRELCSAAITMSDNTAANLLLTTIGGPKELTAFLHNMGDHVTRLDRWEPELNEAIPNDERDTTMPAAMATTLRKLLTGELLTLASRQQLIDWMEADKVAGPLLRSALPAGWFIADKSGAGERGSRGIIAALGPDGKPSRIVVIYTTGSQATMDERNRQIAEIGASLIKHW

Vero [15] = assay: Vero 76 cell viability after compound exposure – Vero 76 cells, synthesized analogs, cytotoxicity control for West Nile virus antiviral project, SAR follow-up (AID 2414); format: functional; details: Chlorocebus sabaeus
Vero [16] = assay: Vero cell viability after compound exposure – synthesized analogs, set II, cytotoxicity control for West Nile virus antiviral project, SAR follow-up (AID 2402); format: functional; details: Chlorocebus sabaeus
Vero [17] = assay: host cell viability loss, Vero E6 – synthesized analogs, cytotoxicity control for West Nile virus antiviral project, SAR follow-up (AID 2244); format: functional; details: Chlorocebus sabaeus
Vero [18] = assay: antiviral protection of cells from WNV – synthesized analogs, SAR follow-up (AID 2238); format: functional, cell-based; details: Chlorocebus sabaeus
[19] = protection from phage-mediated lysis, alamar blue read-out – E. coli UTI89, K1F phage, bacterial capsule biogenesis inhibitors (AID 488966); format: functional
Mu-type opioid receptor = Mu-type opioid receptor (Homo sapiens, UniProt P35372); assay: SAR Analysis of Antagonists of the MOR Receptor using an Image-Based Assay - Set 3. [Related pubchem assays (depositor defined):AID1777, AID1785, AID1786, AID1966, AID2133, AID2136, AID2284, AID2285, AID2420]; format: functional
Sequence of Mu-type opioid receptor (P35372 whole entry): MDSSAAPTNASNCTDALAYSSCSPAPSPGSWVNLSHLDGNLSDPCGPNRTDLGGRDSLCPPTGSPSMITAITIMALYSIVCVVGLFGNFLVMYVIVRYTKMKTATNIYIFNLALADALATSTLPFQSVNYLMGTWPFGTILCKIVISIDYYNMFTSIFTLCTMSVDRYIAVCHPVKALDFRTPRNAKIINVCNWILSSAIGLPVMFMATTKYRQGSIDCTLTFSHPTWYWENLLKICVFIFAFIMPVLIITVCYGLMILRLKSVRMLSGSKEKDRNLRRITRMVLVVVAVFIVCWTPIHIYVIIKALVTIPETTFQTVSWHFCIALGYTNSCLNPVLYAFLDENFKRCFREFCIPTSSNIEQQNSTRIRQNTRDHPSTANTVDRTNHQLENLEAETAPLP

[20] = biological target: Delta-type opioid receptor (Homo sapiens, UniProt P41143); assay: SAR Analysis of Antagonists of the DOR Receptor using an Image-Based Assay - Set 3. [Related pubchem assays (depositor defined):AID1777, AID1785]; format: functional;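 also: U2OS cells expressing DOR1 and beta-arrestin GFP stimulated with 100 nM SNC80; imaging of GFP-tagged beta-arrestin moving into spots after receptor activation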
Sequence of Delta-type opioid receptor (P41143 whole entry): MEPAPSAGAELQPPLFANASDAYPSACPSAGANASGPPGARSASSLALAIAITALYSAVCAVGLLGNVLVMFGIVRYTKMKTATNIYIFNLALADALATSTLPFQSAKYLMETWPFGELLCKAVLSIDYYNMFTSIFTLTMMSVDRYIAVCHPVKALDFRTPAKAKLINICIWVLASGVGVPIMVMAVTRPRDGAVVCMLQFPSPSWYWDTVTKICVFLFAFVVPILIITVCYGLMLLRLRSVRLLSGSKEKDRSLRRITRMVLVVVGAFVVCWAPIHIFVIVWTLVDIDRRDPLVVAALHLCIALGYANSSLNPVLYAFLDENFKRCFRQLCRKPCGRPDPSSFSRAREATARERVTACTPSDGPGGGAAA

[21] = biological target: T4, Kappa-type opioid receptor (Homo sapiens, UniProt P41145); assay: SAR analysis of small molecule antagonists of the kappa opioid receptor via a luminescent beta-arrestin assay - Set 3. [Related pubchem assays (depositor defined):AID1777, AID1778, AID1785, AID1786, AID1966, AID2133, AID2136, AID2285, AID2495]; format: functional
T4 sequence (P41145 whole entry): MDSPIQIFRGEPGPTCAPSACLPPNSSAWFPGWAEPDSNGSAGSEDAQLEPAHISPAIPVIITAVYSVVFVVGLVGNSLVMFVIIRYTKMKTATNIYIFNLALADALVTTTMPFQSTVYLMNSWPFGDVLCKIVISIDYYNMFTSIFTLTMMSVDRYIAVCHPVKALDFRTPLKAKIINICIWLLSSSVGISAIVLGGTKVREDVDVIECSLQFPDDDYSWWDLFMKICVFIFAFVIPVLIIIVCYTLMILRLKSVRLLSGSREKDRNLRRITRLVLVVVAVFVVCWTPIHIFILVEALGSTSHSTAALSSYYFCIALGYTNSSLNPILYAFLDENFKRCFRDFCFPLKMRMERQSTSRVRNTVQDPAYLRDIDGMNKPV

[22] = biological target: T4, Kappa-type opioid receptor; assay: SAR analysis of Antagonists of the Kappa Opioid Receptor (KOR) using an Image-Based Assay - Set 4. [Related pubchem assays (depositor defined):AID1777, AID1785]; format: functional
Coagulation factor XII = biological target: T5, Coagulation factor XII (Homo sapiens, UniProt P00748); assay: activated coagulation factor XII inhibitor potency, concentration-effect curve, cell-free (AID 716); format: functional
T5 sequence (P00748 whole entry): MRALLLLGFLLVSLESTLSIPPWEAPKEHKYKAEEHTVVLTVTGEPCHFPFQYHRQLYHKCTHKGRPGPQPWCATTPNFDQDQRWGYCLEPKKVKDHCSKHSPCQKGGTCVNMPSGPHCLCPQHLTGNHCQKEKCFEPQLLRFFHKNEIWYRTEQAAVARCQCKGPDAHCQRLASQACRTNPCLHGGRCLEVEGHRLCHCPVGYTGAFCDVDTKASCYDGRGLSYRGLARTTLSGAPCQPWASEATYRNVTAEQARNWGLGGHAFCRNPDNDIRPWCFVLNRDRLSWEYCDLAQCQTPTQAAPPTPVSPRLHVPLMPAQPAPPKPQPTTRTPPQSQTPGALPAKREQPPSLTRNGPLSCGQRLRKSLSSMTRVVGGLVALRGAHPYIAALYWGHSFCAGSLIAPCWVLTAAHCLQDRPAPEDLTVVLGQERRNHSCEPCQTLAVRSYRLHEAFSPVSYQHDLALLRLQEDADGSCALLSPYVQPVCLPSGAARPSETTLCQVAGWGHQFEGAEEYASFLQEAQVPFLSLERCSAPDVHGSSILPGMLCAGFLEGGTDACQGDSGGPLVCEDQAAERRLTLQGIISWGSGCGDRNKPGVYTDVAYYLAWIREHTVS

[23] = biological target: T4, Kappa-type opioid receptor; assay: SAR analysis of small molecule antagonists of the kappa opioid receptor via a luminescent beta-arrestin assay - Set 6. [Related pubchem assays (depositor defined):AID1777, AID1778, AID1785, AID1786, AID1966, AID2133, AID2136, AID2285]; format: functional
[24] = biological target: T4, Kappa-type opioid receptor; assay: SAR analysis of small molecule antagonists of the kappa opioid receptor via a luminescent beta-arrestin assay - Set 4. [Related pubchem assays (depositor defined):AID1777, AID1778, AID1785, AID1786, AID1966, AID2133, AID2136, AID2285]; format: functional
[25] = biological target: T6, Tyrosine-protein phosphatase non-receptor type 7 (Homo sapiens, UniProt P35236); assay: Dose Response confirmation of compounds that inhibit HePTP. [Related pubchem assays (depositor defined):AID1059, AID1661, AID2085]; format: functional
T6 sequence (P35236 whole entry): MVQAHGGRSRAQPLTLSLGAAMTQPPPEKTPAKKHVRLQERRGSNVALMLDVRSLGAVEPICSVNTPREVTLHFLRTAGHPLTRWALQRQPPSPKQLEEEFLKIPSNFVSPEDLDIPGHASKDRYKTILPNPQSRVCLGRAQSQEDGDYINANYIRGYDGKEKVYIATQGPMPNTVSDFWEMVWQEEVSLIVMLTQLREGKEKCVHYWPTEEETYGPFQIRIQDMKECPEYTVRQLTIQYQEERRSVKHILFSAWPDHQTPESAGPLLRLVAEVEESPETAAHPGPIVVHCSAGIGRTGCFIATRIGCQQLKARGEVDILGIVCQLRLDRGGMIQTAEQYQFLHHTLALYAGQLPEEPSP

[26] = biological target: Dual specificity protein phosphatase 3 (Homo sapiens, UniProt P51452); assay: Dose Response Confirmation of compounds that inhibit VHR1 in Fluorescent Assay. [Related pubchem assays (depositor defined):AID1661, AID1878]; format: functional
Sequence of Dual specificity protein phosphatase 3 (P51452 whole entry): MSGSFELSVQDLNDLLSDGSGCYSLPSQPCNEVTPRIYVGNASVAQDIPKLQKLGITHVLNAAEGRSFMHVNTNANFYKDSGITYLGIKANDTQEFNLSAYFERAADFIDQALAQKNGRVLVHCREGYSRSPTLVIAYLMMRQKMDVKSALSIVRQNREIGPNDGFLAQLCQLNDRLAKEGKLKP

[27] = biological target: Low molecular weight phosphotyrosine protein phosphatase (Homo sapiens, UniProt P24666); format: functional; details: read-out: IC50_Mean;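 also: Dose-response confirmation assay measuring inhibition of LMPTP enzyme activity by fluorescence intensity read-out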
Sequence of Low molecular weight phosphotyrosine protein phosphatase (P24666 whole entry): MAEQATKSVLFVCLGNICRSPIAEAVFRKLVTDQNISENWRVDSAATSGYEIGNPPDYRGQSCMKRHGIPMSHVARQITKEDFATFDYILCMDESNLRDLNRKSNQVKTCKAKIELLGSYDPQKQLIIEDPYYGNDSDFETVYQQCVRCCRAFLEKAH

## CCCCCCCCn1c2c(c(=N)c3ccccc31)CCC2
[1]
  EC50: < 100 nM (active)
[2]
  IC50: 7.78 µM (not active)
[3]
  EC50: 8.28 µM (active)
[4]
  IC50: 11.9 µM (active)
[5]
  EC50: 17.7 µM (active)
[6]
  IC50: 59.4 µM (inactive)
cells
  EC50: 14 nM (active)

## O=C(COc1ccc(F)cc1Cl)Nc1nnc(-c2ccc(F)cc2)o1
[7]
  EC50: 1.9 µM (active)

## CCOC(=O)COc1ccccc1/C=C\[N+](=O)[O-]
BJ [8]
  EC50: 3.48 µM (inconclusive)
[9]
  EC50: 4.03 µM (active)
BJ [10]
  EC50: 26.7 µM (active)
[11]
  IC50: 962 nM (active)
BJ [12]
  EC50: 3.99 µM (inconclusive)
[13]
  EC50: 4.76 µM (active)
[14]
  IC50: 3.42 µM (active)
Integrin alpha-4
  EC50: 335 nM (active)
CHO
  IC50: 1.92 µM (active)
Beta Lactamase
  IC50: > 49.7 µM (inactive)

## O=C(CSc1nc2ccccc2c(=O)n1-c1ccc(F)c(Cl)c1)Nc1ccc2c(c1)CCC2
Vero [15]
  CC50: > 66.6 µM (active)
Vero [16]
  CC50: > 100 µM (active)
Vero [17]
  CC50: > 40 µM (active)
Vero [18]
  IC50: 19.3 µM (active)

## OC(CNc1ccnc2cc(Cl)ccc12)CNC1CCCCC1 (stereo unspecified)
[19]
  IC50: > 150 µM (active)

## O=C(Cn1c(=O)c2cccn2c2cc(Br)cnc21)NCCCN1CCN(c2ccc(Cl)cc2)CC1
Mu-type opioid receptor
  IC50: 5.32 µM (active)
[20]
  IC50: > 32 µM (inactive)
[21]
  IC50: > 20 µM (inactive)
[22]
  IC50: > 32 µM (inactive)

## O=C(c1cccc(F)c1)n1nnc2ccccc21
Coagulation factor XII
  IC50: 10.5 µM (active)

## Cc1ccc(S(=O)(=O)NCc2ccc(C(=O)NCCCN3CCN(c4ccccc4)CC3)cc2)cc1
Mu-type opioid receptor
  IC50: 0.469 µM (active)
[23]
  IC50: > 20 µM (inactive)
[24]
  IC50: > 20 µM (inactive)
[20]
  IC50: > 32 µM (inactive)
[22]
  IC50: > 32 µM (inactive)

## O=C(CSc1ccc2ccccc2n1)Nc1nsc(-c2ccc(Cl)cc2)n1
[25]
  IC50: 931 nM (active)
[26]
  IC50: 6.74 µM (active)
[27]
  IC50: 11.7 µM (active)
